Assay results published in article PMC9657394, “Purification and Characterization of Bot33: A Non-Toxic Peptide from the Venom of Buthus occitanus tunetanus Scorpion” (Molecules, 2022).

How the values were obtained:
mice = system: mice; design: method as in PMID 1730708; details: ref [22]; cited from earlier work
hKv1.3 = test: Two-electrode voltage-clamp, Kv1.3 expressed in Xenopus laevis oocytes; format: cell-based, mammalian; details: 1 µM, 250-ms depolarization to 0 mV from −90 mV, pH 7.4, 18–22 °C
Description: (§1) For the expression of Kv channels (mammalian rKv1.1, rKv1.2, hKv1.3, rKv1.4, rKv1.5, rKv1.6, and Drosophila Shaker IR) in Xenopus laevis oocytes, the linearized plasmids were transcribed using the T7 or SP6 mMESSAGE-mMACHINE transcription kit (Ambion, Carlsbad, CA, USA). The harvesting of stage V–VI oocytes from anesthetized female Xenopus laevis frog was previously described in compliance with the regulations of the European Union (EU) concerning the welfare of laboratory animals as declared in Directive 2010/63/EU. The use of X. laevis oocytes was approved by the Animal Ethics Committee of the KU Leuven with the license number P186/2019. Oocytes were injected with 50 nl of cRNA at a concentration of 1 ng/nl using a microinjector (Drummond Scientific, Broomall, PA, USA). […]
(§2) Two-electrode voltage-clamp recordings were performed at room temperature (18–22 °C) using a Geneclamp 500 amplifier (Molecular Devices, Downingtown, PA, USA) controlled by a pClamp data acquisition system (Axon Instruments, Union City, CA, USA). Whole-cell currents from oocytes were recorded 1–4 days after injection. […] All data were analyzed using pClamp Clampfit 10.1 (Molecular Devices, Downingtown, PA, USA) and Origin 7.5 software (Originlab, Northampton, MA, USA).

Shaker IR = test: Two-electrode voltage-clamp, Shaker IR expressed in Xenopus laevis oocytes; format: cell-based, Drosophila; details: 1 µM, 250-ms depolarization to 0 mV from −90 mV, pH 7.4, 18–22 °C
Description: as §1, §2

Substance	LD50 (mice)	effect on Kv1.3 current (hKv1.3)	effect on Shaker IR current (Shaker IR)
KTX: toxin with LD50 ≈ 24 ng/20 g mice	≈ 24 ng/20 g mice	–	–
ChTx: control toxin tested on Kv1.3 and Shaker IR	–	completely inhibited the current	completely inhibited the current
